What was measured:
[1] = target: Carbonic anhydrase 2 (Homo sapiens, UniProt P00918)
Description: Inhibitory activity against human recombinant carbonic anhydrase II (CA2)

[2] = target: T1, Carbonic anhydrase 4 (Bos taurus, UniProt Q95323)
T1 sequence (Q95323 whole entry): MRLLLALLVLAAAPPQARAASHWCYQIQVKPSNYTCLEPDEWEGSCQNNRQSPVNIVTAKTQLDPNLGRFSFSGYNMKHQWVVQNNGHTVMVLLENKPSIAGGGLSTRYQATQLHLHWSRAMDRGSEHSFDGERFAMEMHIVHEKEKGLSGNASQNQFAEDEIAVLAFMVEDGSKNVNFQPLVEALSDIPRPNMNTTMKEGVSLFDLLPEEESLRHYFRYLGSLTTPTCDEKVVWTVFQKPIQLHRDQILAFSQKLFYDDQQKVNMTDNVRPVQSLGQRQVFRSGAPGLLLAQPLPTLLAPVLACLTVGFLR
Description: Inhibitory activity against bovine carbonic anhydrase IV (CA4), obtained from bovine lung microsomes

[3] = target: Carbonic anhydrase 1 (Homo sapiens, UniProt P00915)
Sequence of Carbonic anhydrase 1 (P00915 whole entry): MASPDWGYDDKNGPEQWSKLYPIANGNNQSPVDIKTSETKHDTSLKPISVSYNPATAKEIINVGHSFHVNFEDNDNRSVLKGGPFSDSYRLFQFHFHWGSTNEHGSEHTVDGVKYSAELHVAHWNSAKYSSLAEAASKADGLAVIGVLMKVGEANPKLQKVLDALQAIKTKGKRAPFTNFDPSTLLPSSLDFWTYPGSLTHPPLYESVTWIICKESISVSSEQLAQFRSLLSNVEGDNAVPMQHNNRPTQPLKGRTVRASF
Description: Inhibitory activity against human recombinant carbonic anhydrase I (CA1)

| SMILES | Ki [1] | Ki [2] | Ki [3] |
| --- | --- | --- | --- |
| C[C@H](CCC(=O)NNc1ccc(S(N)(=O)=O)cc1)[C@H]1CC[C@H]2[C@@H]3[C@@H](O)C[C@@H]4C[C@H](O)CC[C@]4(C)[C@H]3CC[C@]12C | 240 nM | 615 nM | 12000 nM |
| C[C@H](CCC(=O)OCCc1ccc(S(N)(=O)=O)cc1)[C@H]1CC[C@H]2[C@@H]3CC[C@@H]4C[C@H](O)CC[C@]4(C)[C@H]3CC[C@]12C | 81 nM | 310 nM | 625 nM |
| C[C@H](CCC(=O)Nc1cccc(S(N)(=O)=O)c1)[C@H]1CC[C@H]2[C@@H]3CC[C@@H]4C[C@H](O)CC[C@]4(C)[C@H]3CC[C@]12C | 210 nM | 740 nM | 9500 nM |
| C[C@H](CCC(=O)NCc1ccc(S(N)(=O)=O)cc1)[C@H]1CC[C@H]2[C@@H]3[C@H](O)C[C@@H]4C[C@H](O)CC[C@]4(C)[C@H]3CC[C@]12C | 96 nM | 244 nM | 3450 nM |
| C[C@H](CCC(=O)Nc1ccc(S(N)(=O)=O)cc1Br)[C@H]1CC[C@H]2[C@@H]3[C@H](O)C[C@@H]4C[C@H](O)CC[C@]4(C)[C@H]3CC[C@]12C | 34 nM | 53 nM | 617 nM |
| C[C@H](CCC(=O)NCCC(=O)Nc1nnc(S(N)(=O)=O)s1)[C@H]1CC[C@H]2[C@@H]3[C@H](O)C[C@@H]4C[C@H](O)CC[C@]4(C)[C@H]3CC[C@]12C | 2 nM | 45 nM | 268 nM |
| C[C@H](CCC(=O)Nc1ccc(S(N)(=O)=O)cc1F)[C@H]1CC[C@H]2[C@@H]3C(=O)C[C@@H]4CC(=O)CC[C@]4(C)[C@H]3CC(=O)[C@]12C | 15 nM | 28 nM | 210 nM |
| C[C@H](CCC(=O)Nc1cc(Cl)c(S(N)(=O)=O)cc1S(N)(=O)=O)[C@H]1CC[C@H]2[C@@H]3CC[C@@H]4C[C@H](O)CC[C@]4(C)[C@H]3CC[C@]12C | 54 nM | 82 nM | 200 nM |
| C[C@H](CCC(=O)Nc1ccc(S(N)(=O)=O)cc1)[C@H]1CC[C@H]2[C@@H]3CC[C@@H]4C[C@H](O)CC[C@]4(C)[C@H]3C[C@H](O)[C@]12C | 210 nM | 355 nM | 12000 nM |
| C[C@H](CCC(=O)NCc1ccc(S(N)(=O)=O)cc1)[C@H]1CC[C@H]2[C@@H]3[C@H](O)C[C@@H]4C[C@H](O)CC[C@]4(C)[C@H]3C[C@H](O)[C@]12C | 120 nM | 254 nM | 3780 nM |
| C[C@H](CCC(=O)Nc1ccc2nc(S(N)(=O)=O)sc2c1)[C@H]1CC[C@H]2[C@@H]3[C@H](O)C[C@@H]4C[C@H](O)CC[C@]4(C)[C@H]3C[C@H](O)[C@]12C | 5 nM | 10 nM | 35 nM |
| C[C@H](CCC(=O)Nc1ccc2nc(S(N)(=O)=O)sc2c1)[C@H]1CC[C@H]2[C@@H]3CC[C@@H]4C[C@H](O)CC[C@]4(C)[C@H]3C[C@H](O)[C@]12C | 6.5 nM | 12 nM | 56 nM |
| C[C@H](CCC(=O)NCCC(=O)Nc1nnc(S(N)(=O)=O)s1)[C@H]1CC[C@H]2[C@@H]3CC[C@@H]4C[C@H](O)CC[C@]4(C)[C@H]3C[C@H](O)[C@]12C | 2.1 nM | 30 nM | 200 nM |
| C[C@H](CCC(=O)Nc1ccc(S(N)(=O)=O)cc1)[C@H]1CC[C@H]2[C@@H]3[C@H](O)C[C@@H]4C[C@H](O)CC[C@]4(C)[C@H]3C[C@H](O)[C@]12C | 210 nM | 430 nM | 21000 nM |
| C[C@H](CCC(=O)Nc1ccc(S(N)(=O)=O)cc1I)[C@H]1CC[C@H]2[C@@H]3[C@H](O)C[C@@H]4C[C@H](O)CC[C@]4(C)[C@H]3C[C@H](O)[C@]12C | 53 nM | 104 nM | 510 nM |
| C[C@H](CCC(=O)Nc1ccc(S(N)(=O)=O)cc1)[C@H]1CC[C@H]2[C@@H]3[C@@H](O)C[C@@H]4C[C@H](O)CC[C@]4(C)[C@H]3CC[C@]12C | 71 nM | 164 nM | 4000 nM |
| C[C@H](CCC(=O)Nc1ccc(S(N)(=O)=O)cc1Br)[C@H]1CC[C@H]2[C@@H]3CC[C@@H]4C[C@H](O)CC[C@]4(C)[C@H]3CC[C@]12C | 21 nM | 53 nM | 120 nM |
| C[C@H](CCC(=O)Nc1nnc(S(N)(=O)=O)s1)[C@H]1CC[C@H]2[C@@H]3CC[C@@H]4C[C@H](O)CC[C@]4(C)[C@H]3CC[C@]12C | 10 nM | 28 nM | 210 nM |
| C[C@H](CCC(=O)NNc1ccc(S(N)(=O)=O)cc1)[C@H]1CC[C@H]2[C@@H]3CC[C@@H]4C[C@H](O)CC[C@]4(C)[C@H]3C[C@H](O)[C@]12C | 310 nM | 920 nM | 21300 nM |

| SMILES | Ki [1] | Ki [2] | Ki [3] |
| --- | --- | --- | --- |
| C[C@H](CCC(=O)NNc1ccc(S(N)(=O)=O)cc1)[C@H]1CC[C@H]2[C@@H]3CC[C@@H]4C[C@H](O)CC[C@]4(C)[C@H]3CC[C@]12C | 280 nM | 650 nM | 15000 nM |
| C[C@H](CCC(=O)NNc1ccc(S(N)(=O)=O)cc1)[C@H]1CC[C@H]2[C@@H]3C(=O)C[C@@H]4CC(=O)CC[C@]4(C)[C@H]3CC(=O)[C@]12C | 260 nM | 550 nM | 12800 nM |
| C[C@H](CCC(=O)/N=c1\sc(S(N)(=O)=O)nn1C)[C@H]1CC[C@H]2[C@@H]3[C@H](O)C[C@@H]4C[C@H](O)CC[C@]4(C)[C@H]3CC[C@]12C | 13 nM | 100 nM | 514 nM |
| C[C@H](CCC(=O)Nc1c(S(N)(=O)=O)cc(S(N)(=O)=O)c(Cl)c1Cl)[C@H]1CC[C@H]2[C@@H]3[C@@H](O)C[C@@H]4C[C@H](O)CC[C@]4(C)[C@H]3CC[C@]12C | 10 nM | 29 nM | 59 nM |
| C[C@H](CCC(=O)Nc1ccc(S(N)(=O)=O)cc1I)[C@H]1CC[C@H]2[C@@H]3C(=O)C[C@@H]4CC(=O)CC[C@]4(C)[C@H]3CC(=O)[C@]12C | 10 nM | 19 nM | 61 nM |
| C[C@H](CCC(=O)Nc1c(S(N)(=O)=O)cc(S(N)(=O)=O)c(Cl)c1Cl)[C@H]1CC[C@H]2[C@@H]3[C@H](O)C[C@@H]4C[C@H](O)CC[C@]4(C)[C@H]3CC[C@]12C | 21 nM | 95 nM | 343 nM |
| C[C@H](CCC(=O)NCCC(=O)Nc1nnc(S(N)(=O)=O)s1)[C@H]1CC[C@H]2[C@@H]3C(=O)C[C@@H]4CC(=O)CC[C@]4(C)[C@H]3CC(=O)[C@]12C | 1.1 nM | 7 nM | 22 nM |
| C[C@H](CCC(=O)Nc1ccc(S(N)(=O)=O)cc1F)[C@H]1CC[C@H]2[C@@H]3[C@H](O)C[C@@H]4C[C@H](O)CC[C@]4(C)[C@H]3C[C@H](O)[C@]12C | 50 nM | 133 nM | 1280 nM |
| C[C@H](CCC(=O)NCCC(=O)Nc1nnc(S(N)(=O)=O)s1)[C@H]1CC[C@H]2[C@@H]3[C@@H](O)C[C@@H]4C[C@H](O)CC[C@]4(C)[C@H]3CC[C@]12C | 1.3 nM | 11 nM | 98 nM |
| C[C@H](CCC(=O)OCc1ccc(S(N)(=O)=O)cc1)[C@H]1CC[C@H]2[C@@H]3[C@@H](O)C[C@@H]4C[C@H](O)CC[C@]4(C)[C@H]3CC[C@]12C | 75 nM | 245 nM | 500 nM |
| C[C@H](CCC(=O)OCCOc1ccc2nc(S(N)(=O)=O)sc2c1)[C@H]1CC[C@H]2[C@@H]3[C@H](O)C[C@@H]4C[C@H](O)CC[C@]4(C)[C@H]3C[C@H](O)[C@]12C | 3 nM | 10 nM | 39 nM |
| C[C@H](CCC(=O)/N=c1\sc(S(N)(=O)=O)nn1C)[C@H]1CC[C@H]2[C@@H]3CC[C@@H]4C[C@H](O)CC[C@]4(C)[C@H]3CC[C@]12C | 8 nM | 21 nM | 205 nM |
| C[C@H](CCC(=O)Oc1ccc2nc(S(N)(=O)=O)sc2c1)[C@H]1CC[C@H]2[C@@H]3[C@H](O)C[C@@H]4C[C@H](O)CC[C@]4(C)[C@H]3CC[C@]12C | 6.1 nM | 12 nM | 47 nM |
| C[C@H](CCC(=O)Nc1ccc(S(N)(=O)=O)cc1Cl)[C@H]1CC[C@H]2[C@@H]3C(=O)C[C@@H]4CC(=O)CC[C@]4(C)[C@H]3CC(=O)[C@]12C | 13 nM | 30 nM | 200 nM |
| C[C@H](CCC(=O)Nc1cc(Cl)c(S(N)(=O)=O)cc1S(N)(=O)=O)[C@H]1CC[C@H]2[C@@H]3CC[C@@H]4C[C@H](O)CC[C@]4(C)[C@H]3C[C@H](O)[C@]12C | 55 nM | 121 nM | 225 nM |
| C[C@H](CCC(=O)OCc1ccc(S(N)(=O)=O)cc1)[C@H]1CC[C@H]2[C@@H]3C(=O)C[C@@H]4CC(=O)CC[C@]4(C)[C@H]3CC(=O)[C@]12C | 71 nM | 200 nM | 450 nM |
| C[C@H](CCC(=O)Nc1ccc(S(N)(=O)=O)cc1I)[C@H]1CC[C@H]2[C@@H]3CC[C@@H]4C[C@H](O)CC[C@]4(C)[C@H]3C[C@H](O)[C@]12C | 47 nM | 110 nM | 415 nM |
| C[C@H](CCC(=O)OCc1ccc(S(N)(=O)=O)cc1)[C@H]1CC[C@H]2[C@@H]3CC[C@@H]4C[C@H](O)CC[C@]4(C)[C@H]3CC[C@]12C | 92 nM | 313 nM | 800 nM |
